What was measured:
[1] = tested on: human colon carcinoma HT29; test: In vitro cytotoxicity, Microculture Tetrazolium Assay, HT29; type: cell-based; conditions: HT-29, HT29, 96 hours exposure, read-out: IC50 (concentration of cytotoxic agent which inhibits proliferation of the treated cells by 50%)
Method: (§1) The murine leukaemia L1210 and the human colon carcinomas HCT116 and HT29 were used in vitro. The cells are cultured in RPMI 1640 complete culture medium containing 10% foetal calf serum, 2 mM glutamine, 50 units/ml of penicillin, 50 μg/ml of streptomycin and 10 mM Hepes, pH=7.4. The cells are distributed on microplates and are exposed to the cytotoxic compounds for 4 doubling times, that is to say 48 hours (L1210) or 96 hours (HCT116 and HT29). The number of viable cells is then quantified by a […] assay, the Microculture Tetrazolium Assay (J. Carmichael et al., Cancer Res.; 47, 936-942, (1987)). The results are expressed in terms of the IC50 (the concentration of cytotoxic agent which inhibits proliferation of the treated cells by 50%).

murine leukaemia L1210 = test: In vitro cytotoxicity, Microculture Tetrazolium Assay, L1210; type: cell-based; conditions: Mus musculus; L1210, 48 hours exposure; read-out: IC50 (concentration of cytotoxic agent which inhibits proliferation of the treated cells by 50%)
Method: as §1

Compound	IC50 [1]	IC50 (murine leukaemia L1210)
CCC1(O)C(=O)Cc2c1cc1n(c2=O)Cc2c-1nc1cc3c(cc1c2-c1ccc(N(C)C)cc1)OCO3 (stereo not drawn) [Example 6, 7-Ethyl-2,3-methylenedioxy-7-hydroxy-13-[4-(dimethylamino)phenyl]-9,12-dihydro-7H-cyclopenta[6,7]indolizino[1,2-b]quinoline-8,10-dione]	4.7 nM	10.4 nM
CCC1(O)C(=O)Cc2c1cc1n(c2=O)Cc2c-1nc1cc3c(cc1c2-c1ccc(C)cc1)OCO3 (stereo not drawn) [Example 1, 7-Ethyl-7-hydroxy-2,3-methylenedioxy-13-(4-methylphenyl)-9,12-dihydro-7H-cyclopenta[6,7]indolizino[1,2-b]quinoline-8,10-dione]	3.2 nM	–
